Data on five molecules can be found in patent US20260176320A1, “MODULATORS OF G-PROTEIN COUPLED RECEPTORS” (priority 2018, published 2026).

One assay concerns the target GLP-1R (Homo sapiens, UniProt P43220). As to the kind of experiment: HitHunter cAMP assay (GLP-1R). Conditions: cAMP; for Emax: read-out: (Emax) GLP-1R. In kind it is cell-based. Here is the method:
(§1) Suspension cells were harvested and resuspended in 1×HBSS (+10 mM HEPES, 625 μM IBMX, 0.2% BSA) according to the following procedure: 5 μL of 2× cell suspension+1× antibody were added to each well, where the optimal cell density was 10,000 cells per well in a low volume 384-well plate. Agonist serial dilutions in a separate 384 well dilution plate in a 22-point series of 2× dilutions of agonist in DMSO were performed as follows. 80 μL of the highest concentration of Agonist/DMSO was added to well No. 1. 40 μL was removed from well No. 1 and added it to well No. 2, followed by gentle mixing. […] This process was repeated until well No. 22. Additional serial dilutions for additional agonists were set up in a similar manner. 50 nL of each 2× agonist serial dilution was added in duplicate to the designated agonist rows of the assay plate using the Labcyte ECHO. Assay plate was incubated for 30 minutes at room temperature. Following agonist incubation, 5 μL of cAMP Antibody Reagent was added to all wells. […] Plates were spun down briefly. Assay plate was incubated for 1 hour at room temperature in the dark for the immunocompetition reaction to occur. […] Plates were spun down briefly. Assay plate was incubated O/N at room temperature in the dark. Samples were read on Tecan i-control plate reader using luminescence mode with 300 ms integration time. Data analysis was performed using GraphPad Prism.
Background: Changes in cAMP serve as a functional read-out for many G protein-coupled receptors.

The target in the next assay is T1, GIP-R (Homo sapiens, UniProt P48546).
T1 sequence (P48546 22-466): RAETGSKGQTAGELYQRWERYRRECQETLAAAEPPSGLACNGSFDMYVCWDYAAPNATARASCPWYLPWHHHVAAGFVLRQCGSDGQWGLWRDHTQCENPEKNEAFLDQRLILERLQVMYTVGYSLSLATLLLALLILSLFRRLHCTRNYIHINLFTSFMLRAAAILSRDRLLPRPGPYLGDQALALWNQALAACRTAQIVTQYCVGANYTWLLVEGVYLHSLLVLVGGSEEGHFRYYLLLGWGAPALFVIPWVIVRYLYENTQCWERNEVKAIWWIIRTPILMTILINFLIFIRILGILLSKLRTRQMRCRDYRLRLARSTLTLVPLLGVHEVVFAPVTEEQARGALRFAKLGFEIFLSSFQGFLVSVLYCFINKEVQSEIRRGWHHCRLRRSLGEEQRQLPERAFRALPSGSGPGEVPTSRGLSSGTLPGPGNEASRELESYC
As to the kind of experiment: HitHunter cAMP assay (GIP-R). In kind it is cell-based. Conditions: cAMP; for Emax: read-out: (Emax) GIP-R. Here is the method:
as §1

Each structure is given as a SMILES string. Like-named read-outs stand apart in the source and are kept apart here. Some results are limits rather than exact numbers.

GLP-1R, sequence (P43220 24-463): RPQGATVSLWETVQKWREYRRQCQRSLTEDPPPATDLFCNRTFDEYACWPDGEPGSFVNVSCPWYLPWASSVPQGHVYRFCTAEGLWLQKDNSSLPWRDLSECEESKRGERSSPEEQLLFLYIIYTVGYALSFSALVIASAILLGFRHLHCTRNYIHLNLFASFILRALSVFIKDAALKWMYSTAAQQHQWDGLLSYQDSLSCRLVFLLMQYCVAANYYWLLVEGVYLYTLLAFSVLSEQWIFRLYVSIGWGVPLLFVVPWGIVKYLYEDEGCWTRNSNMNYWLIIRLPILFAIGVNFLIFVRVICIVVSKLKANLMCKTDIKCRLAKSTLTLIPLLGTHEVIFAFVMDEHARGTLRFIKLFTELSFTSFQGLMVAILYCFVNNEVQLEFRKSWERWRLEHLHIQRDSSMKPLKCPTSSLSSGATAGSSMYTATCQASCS

Regarding `CCCCCCCCCCCCCCCC(=O)N[C@@H](CCC(=O)NCCCC[C@H](NC(=O)[C@H](CO)NC(=O)[C@@H]1CCCN1C(=O)[C@@H]1CCCN1C(=O)[C@@H]1CCCN1C(=O)[C@H](C)NC(=O)CNC(=O)[C@H](CO)NC(=O)[C@H](CO)NC(=O)[C@@H]1CCCN1C(=O)CNC(=O)CNC(=O)[C@H](C)NC(=O)[C@H](CC(C)C)NC(=O)[C@H](CC(C)C)NC(=O)[C@H](Cc1c[nH]c2ccccc12)NC(=O)[C@H](CC(N)=O)NC(=O)[C@@H](NC(=O)[C@H](Cc1ccccc1)NC(=O)[C@H](CCC(=O)O)NC(=O)C(C)(C)NC(=O)[C@H](C)NC(=O)[C@H](C)NC(=O)[C@H](CCC(N)=O)NC(=O)[C@H](CCCCN)NC(=O)[C@H](CC(=O)O)NC(=O)[C@H](CC(C)C)NC(=O)[C@H](Cc1ccc(O)cc1)NC(=O)[C@@H](NC(=O)[C@H](CO)NC(=O)[C@H](Cc1ccc(O)cc1)NC(=O)[C@H](CC(=O)O)NC(=O)[C@H](CO)NC(=O)[C@@H](NC(=O)[C@H](Cc1ccccc1)NC(=O)[C@@H](NC(=O)CNC(=O)[C@H](CCC(=O)O)NC(=O)CSCC(=O)NCCN1C(=O)CC2(CCCC2)C1=O)[C@@H](C)O)[C@@H](C)O)[C@@H](C)CC)C(C)C)C(N)=O)C(=O)O` [Compound 102], the EC50 was in the range of 1 to 10 nM at GLP-1R (EC50 GLP-1R/nM, Table 3); 1 to 10 nM on GLP-1R (EC50 GLP-1R/nM, Table 3A); 10 to 100 nM on GIP-R (EC50 GIP-R/nM, Table 3); 10 to 100 nM on GIP-R (EC50 GIP-R/nM, Table 3A). Moreover, the Emax – broadly, the size of the effect at its maximum, as opposed to the concentration needed – on GLP-1R (Table 3) stood at 104%; on GLP-1R (Table 3A) it was 104%; at GIP-R (Table 3), 34%; on GIP-R (Table 3A), 34%.

For `CCCCCCCCCCCCCCCC(=O)N[C@@H](CCC(=O)NCCCC[C@H](NC(=O)[C@H](CO)NC(=O)[C@@H]1CCCN1C(=O)[C@@H]1CCCN1C(=O)[C@@H]1CCCN1C(=O)[C@H](C)NC(=O)CNC(=O)[C@H](CO)NC(=O)[C@H](CO)NC(=O)[C@@H]1CCCN1C(=O)CNC(=O)CNC(=O)[C@H](C)NC(=O)[C@H](CC(C)C)NC(=O)[C@H](CC(C)C)NC(=O)[C@H](Cc1c[nH]c2ccccc12)NC(=O)[C@H](CC(N)=O)NC(=O)[C@@H](NC(=O)[C@H](Cc1ccccc1)NC(=O)[C@H](CCC(=O)O)NC(=O)C(C)(C)NC(=O)[C@H](C)NC(=O)[C@H](C)NC(=O)[C@H](CCC(N)=O)NC(=O)[C@H](CCCCN)NC(=O)[C@H](CC(=O)O)NC(=O)[C@H](CC(C)C)NC(=O)[C@H](Cc1ccc(O)cc1)NC(=O)[C@@H](NC(=O)[C@H](CO)NC(=O)[C@H](Cc1ccc(O)cc1)NC(=O)[C@H](CC(=O)O)NC(=O)[C@H](CO)NC(=O)[C@@H](NC(=O)[C@H](Cc1ccccc1)NC(=O)[C@@H](NC(=O)CNC(=O)[C@H](CCC(=O)O)NC(=O)CSCC(=O)NCCN1C(=O)CC[C@H]1C)[C@@H](C)O)[C@@H](C)O)[C@@H](C)CC)C(C)C)C(N)=O)C(=O)O` (single isomer, unassigned) [Compound 74], the Emax at GLP-1R (Table 3) amounted to 92%; at GLP-1R (Table 3A), 92%; on GIP-R (Table 3) it was 47%; on GIP-R (Table 3A), 47%.

For `CCCCCCCCCCCCCCCC(=O)N[C@@H](CCC(=O)NCCCC[C@H](NC(=O)[C@H](CO)NC(=O)[C@@H]1CCCN1C(=O)[C@@H]1CCCN1C(=O)[C@@H]1CCCN1C(=O)[C@H](C)NC(=O)CNC(=O)[C@H](CO)NC(=O)[C@H](CO)NC(=O)[C@@H]1CCCN1C(=O)CNC(=O)CNC(=O)[C@H](C)NC(=O)[C@H](CC(C)C)NC(=O)[C@H](CC(C)C)NC(=O)[C@H](Cc1c[nH]c2ccccc12)NC(=O)[C@H](CC(N)=O)NC(=O)[C@@H](NC(=O)[C@H](Cc1ccccc1)NC(=O)[C@H](CCC(=O)O)NC(=O)C(C)(C)NC(=O)[C@H](C)NC(=O)[C@H](C)NC(=O)[C@H](CCC(N)=O)NC(=O)[C@H](CCCCN)NC(=O)[C@H](CC(=O)O)NC(=O)[C@H](CC(C)C)NC(=O)[C@H](Cc1ccc(O)cc1)NC(=O)[C@@H](NC(=O)[C@H](CO)NC(=O)[C@H](Cc1ccc(O)cc1)NC(=O)[C@H](CC(=O)O)NC(=O)[C@H](CO)NC(=O)[C@@H](NC(=O)[C@H](Cc1ccccc1)NC(=O)[C@@H](NC(=O)CNC(=O)[C@H](CCC(=O)O)NC(=O)CSCC(=O)NCCN1C(=O)C[C@@H](CC)C1=O)[C@@H](C)O)[C@@H](C)O)[C@@H](C)CC)C(C)C)C(N)=O)C(=O)O` (single isomer, unassigned) [Compound 61], the maximal response (Emax) at GLP-1R (Table 3) was found to be 96%; on GLP-1R (Table 3A) it was 96%; at GIP-R (Table 3) it was 56%; on GIP-R (Table 3A), 56%.

As to `CCCCCCCCCCCCCCCC(=O)N[C@@H](CCC(=O)NCCCC[C@H](NC(=O)[C@H](CO)NC(=O)[C@@H]1CCCN1C(=O)[C@@H]1CCCN1C(=O)[C@@H]1CCCN1C(=O)[C@H](C)NC(=O)CNC(=O)[C@H](CO)NC(=O)[C@H](CO)NC(=O)[C@@H]1CCCN1C(=O)CNC(=O)CNC(=O)[C@H](C)NC(=O)[C@H](CC(C)C)NC(=O)[C@H](CC(C)C)NC(=O)[C@H](Cc1c[nH]c2ccccc12)NC(=O)[C@H](CC(N)=O)NC(=O)[C@@H](NC(=O)[C@H](Cc1ccccc1)NC(=O)[C@H](CCC(=O)O)NC(=O)C(C)(C)NC(=O)[C@H](C)NC(=O)[C@H](C)NC(=O)[C@H](CCC(N)=O)NC(=O)[C@H](CCCCN)NC(=O)[C@H](CC(=O)O)NC(=O)[C@H](CC(C)C)NC(=O)[C@H](Cc1ccc(O)cc1)NC(=O)[C@@H](NC(=O)[C@H](CO)NC(=O)[C@H](Cc1ccc(O)cc1)NC(=O)[C@H](CC(=O)O)NC(=O)[C@H](CO)NC(=O)[C@@H](NC(=O)[C@H](Cc1ccccc1)NC(=O)[C@@H](NC(=O)CNC(=O)[C@H](CCC(=O)O)NC(=O)CSCC(=O)NCCN1C(=O)c2cc3ccccc3cc2C1=O)[C@@H](C)O)[C@@H](C)O)[C@@H](C)CC)C(C)C)C(N)=O)C(=O)O` [Compound 249], the EC50 fell in the range of 10 to 100 nM on GLP-1R (EC50 GLP-1R/nM, Table 3A) and 1 to 10 nM at GIP-R (EC50 GIP-R/nM, Table 3A). The Emax at GLP-1R (Table 3A) came out at 101%; on GIP-R (Table 3A) it was 105%.

Regarding `CC[C@H](C)[C@H](NC(=O)[C@H](CO)NC(=O)[C@H](Cc1ccc(O)cc1)NC(=O)[C@H](CC(=O)O)NC(=O)[C@H](CO)NC(=O)[C@@H](NC(=O)[C@H](Cc1ccccc1)NC(=O)[C@@H](NC(=O)CNC(=O)[C@H](CCC(=O)O)NC(=O)C(C)(C)C(=O)O)[C@@H](C)O)[C@@H](C)O)C(=O)N[C@@H](Cc1ccc(O)cc1)C(=O)N[C@@H](CC(C)C)C(=O)N[C@@H](CC(=O)O)C(=O)N[C@@H](CCCCN)C(=O)N[C@@H](CCC(N)=O)C(=O)N[C@@H](C)C(=O)N[C@@H](C)C(=O)NC(C)(C)C(=O)N[C@@H](CCC(=O)O)C(=O)N[C@@H](Cc1ccccc1)C(=O)N[C@H](C(=O)N[C@@H](CC(N)=O)C(=O)N[C@@H](Cc1c[nH]c2ccccc12)C(=O)N[C@@H](CC(C)C)C(=O)N[C@@H](CC(C)C)C(=O)N[C@@H](C)C(=O)NCC(=O)NCC(=O)N1CCC[C@H]1C(=O)N[C@@H](CO)C(=O)N[C@@H](CO)C(=O)NCC(=O)N[C@@H](C)C(=O)N1CCC[C@H]1C(=O)N1CCC[C@H]1C(=O)N1CCC[C@H]1C(=O)N[C@@H](CO)C(=O)N[C@@H](CCCCN)C(N)=O)C(C)C` [Compound 131], the Emax on GLP-1R (Table 3) turned out to be 95%; at GLP-1R (Table 3A), 95%; at GIP-R (Table 3), 3.2%. Moreover, the EC50 is 1 to 10 nM at GLP-1R (Table 3, read-out: EC50 GLP-1R/nM); 1 to 10 nM on GLP-1R (Table 3A, read-out: EC50 GLP-1R/nM); > 1000 nM at GIP-R (Table 3, read-out: EC50 GIP-R/nM); > 1000 nM at GIP-R (Table 3A, read-out: EC50 GIP-R/nM).
